{"source": "patent US20070293539A1", "about": "“Methods for the treatment of synucleinopathies” (priority 2004, published 2007)", "key": {"[1]": {"tested_on": "UCH-L1", "assay": "2D electrophoresis and Western blotting of membrane-bound and cytosolic UCH-L1 in SH-SY5Y cells", "assay_type": "cell-based", "settings": "compared to cells treated with DMSO", "experimental": "2D electrophoresis: For the isolation of total cellular protein, cultured SH-SY5Y cells maintained as described above were rinsed with ice-cold PBS. Cells were lysed in 1 ml dSDS buffer (50 mM Tris-HCl, pH 8.0 0.1% SDS) supplemented with protease inhibitor cocktail. Lysates were boiled for 3 min, and were treated with Dnase and Rnase as described. Lysates were precipitated with ice-cold acetone for at least 2 hours, and pellets were resuspended in 2D sample buffer (8M urea, 0.5% CHAPS, 0.2% DTT, 0.5% IPG buffer, 0.002% bromophenol blue). 2D electrophoresis was carried out according to manufacture's protocol (Amersham Life Science). 7 cm pH 4-7 strips were used. For SH-SY5Y membrane fraction, culture SH-SY5Y cells were rinsed with cold PBS and harvested with lysis buffer (50 mM Tris-HCl, pH 8.0, 1 mM ZnAc2, 250 mM sucrose). Lysate was passed through 25G needles for several times and spun at 1000 g for 5 min. […]\n(§1) Western Blotting: Following transfer of SDS gels onto NC membrane, all membranes were blocked with 5% non-fat milk in TBST (50 mM Tris-HCl pH7.4, 150 mM NaCl, 0.1% Tween 20), and incubated with primary antibody overnight with 1% BSA in TBST, washed three times with TBST, and incubated with horseradish peroxidase-conjugated secondary antibody for 1 hour (Promega). Bound antibodies were detected using enhanced chemiluminascence (NEM). […]"}, "[2]": {"tested_on": "SH-SY5Y cells infected by α-synuclein-expressing adenovirus", "assay": "α-synuclein toxicity in SH-SY5Y cells infected by α-synuclein-expressing adenovirus (Trypan blue viable cell counting, MTT assay)", "assay_type": "cell-based", "settings": "SH-SY5Y cells overexpressing α-synuclein via adenoviral vector, compared to DMSO", "experimental": "(§2) Viral Infection: Viral infection and MTT assay in SH-SY5Y cells: The viruses were amplified and purified according to the published procedure. SH-SY5Y cells were grown on 100 mm petri-dishes and induced with 100 nM RA for 3-5 days before the virus infection with M.I.O at 75. Viruses were diluted with DPBS to desired M.I.O. After four hours of incubation, 10 ml growth medium was added. On the second day, cells were splitted into 96-well plates and treated with compounds for next 48 hours. The growth medium in each well was replaced with growth medium with 5 ug/ml MTT. Medium was removed after three hours incubation, and 200 ul isopropyl (0.04N HCl) was added into each well. The signal was read at 570 nm.\nViable cell counting: At stated time poins, SH-SY5Y cells were trypsinized with 100 ul trypsin-EDTA for 1 minute and neutralized with 400 ul growth medium. Cell suspension was made up by mixing 0.2 ml of cells in growth medium, 0.3 ml of HBSS and 0.5 ml of 0.4% Trypan Blue solution. Viable cell numbers were counted by standard cell counting chamber.\nSince α-synuclein neurotoxicity is dose-dependent, it follows that accumulation of α-synuclein, caused by UCH-L1 farnesylation, should promote its toxicity. […] These cells express high endogenous levels of UCH-L1. […] The unit of y-axis is 10^5/ml. (F) Cell viability was assessed by the amount of metabolic activity using MTT assay. […]"}, "[3]": {"tested_on": "α-synuclein", "assay": "α-synuclein accumulation in SH-SY5Y cells infected with α-synuclein-expressing adenovirus, Western blotting normalized against actin", "assay_type": "cell-based", "experimental": "as §2\nWestern Blotting: Following transfer of SDS gels onto NC membrane, all membranes were blocked with 5% non-fat milk in TBST (50 mM Tris-HCl pH7.4, 150 mM NaCl, 0.1% Tween 20), and incubated with primary antibody overnight with 1% BSA in TBST, washed three times with TBST, and incubated with horseradish peroxidase-conjugated secondary antibody for 1 hour (Promega). Bound antibodies were detected using enhanced chemiluminascence (NEM).\nSince α-synuclein neurotoxicity is dose-dependent, it follows that accumulation of α-synuclein, caused by UCH-L1 farnesylation, should promote its toxicity. […] (F) Cell viability was assessed by the amount of metabolic activity using MTT assay. […]"}, "[4]": {"tested_on": "α-synuclein", "assay": "α-synuclein degradation assay in transfected COS-7 cells, quantitative Western blotting", "assay_type": "cell-based", "from_the_text": "Plasmids: C220S cDNA was generated by PCR site-specific mutagenesis. For the PCR, the 5′ primer is uchforw SEQ ID NO: 1 ([…]), and 3′ primer is uchc220s SEQ ID NO:2 (CTAAGA […]). Wt UCH-L1 served as the template. The PCR fragment was inserted into pcDNA vector. For S18YC220S mutant, S18Y UCH-L1 served as the template in PCR. For the FLAG tagged UCH-L1, the 5′ primer is FLAGuchforw SEQ ID NO: 3 ([…] CGATGGAG), and the 3′ primer is uchrev SEQ ID NO: 4 ([…]). Wt UCH-L1 or C220S served as the template. PCR fragment was purified and inserted into pcDNA vector. For the FLAG tagged UCH-L3, the 5′ primer is L3HindIII SEQ ID NO: 5 (CTAAAGCTTATGGACTAC […]), the 3′ primer is L3XhoISAA SEQ ID NO: 6 ([…]). […] After 24 hours of incubation, the cells were lysed with Tris buffer (50 mM Tris, 2% SDS, 0.1% NP-40), and subjected to SDS-PAGE, followed by quantitative Western blotting.\nas §1"}, "[5]": {"tested_on": "UCH-L1", "assay": "total amount and turnover of UCH-L1 in SH-SY5Y cells (pulse-chase experiment not shown)", "assay_type": "cell-based"}, "[6]": {"settings": "human, in vivo; cited from earlier work"}, "[7]": {"settings": "taken in a low dose; cited from earlier work"}}, "note": "Entries after “also recorded” stand apart in the source; their conditions may differ.", "data": [{"smiles": "COC(=O)[C@H](CCSC)NC(=O)c1ccc(NC[C@@H](N)CS)cc1-c1ccccc1", "note": "[FTI-277]", "values": [{"measurement": "amount of cytosolic UCH-L1", "setting": "[1]", "result": "without affecting"}, {"measurement": "amount of membrane bound UCH-L1", "setting": "[1]", "result": "significant decrease; also recorded: decreased the amount of the membrane-associated species; also recorded: reducing the amount of membrane-associated protein"}, {"measurement": "α-synuclein toxicity (loss of cells)", "setting": "[2]", "result": "inhibits synuclein toxicity; also recorded: rescued α-synuclein toxicity; also recorded: significantly decreased loss of cells"}, {"measurement": "amount of α-synuclein", "setting": "[3]", "result": "reducing the amount of α-synuclein accumulation; also recorded: reduced the amount of α-synuclein"}, {"measurement": "synuclein level", "setting": "[4]; COS-7 cells", "result": "lowers synuclein level"}, {"measurement": "total amount of UCH-L1", "setting": "[5]", "result": "reduced the total amount of UCH-L1"}, {"measurement": "rate of turnover of UCH-L1", "setting": "[5]; pulse-chase experiment not shown", "result": "increased its rate of turnover"}]}, {"smiles": "CC(=O)N[C@@H](CSC(=O)[C@]1([C@@H](O)C(C)C)NC(=O)[C@H](C)[C@@H]1O)C(=O)O", "note": "[lactacysteine]", "values": [{"measurement": "accumulation of α-synuclein", "setting": "[4]; transfected COS-7 cells, 16 kDa α-synuclein normalized against actin", "result": 100, "unit": "%"}]}, {"smiles": "N[C@@H](Cc1ccc(O)c(O)c1)C(=O)O", "note": "[levodopa]", "values": [{"measurement": "patients that do not respond", "setting": "[6]", "result": "About 15%"}]}, {"smiles": "C#CCN(C)[C@H](C)Cc1ccccc1", "note": "[selegiline]", "values": [{"measurement": "delay of the need for levodopa", "setting": "[7]", "result": "roughly three"}]}]}
